US5384317A, “Bridged biphenyl carbapenem compounds, compositions containing such compounds and methods of use” (Merck & Co., Inc., priority 1993, dated 1995)
In brackets after ≈: the same amount, converted by molar mass.

How the values were obtained:
[1] = system: MRSA strain MB #5180; assay: antibiotic disc-diffusion assay of MRSA activity, relative to imipenem; assay type: cell-based, methicillin resistant Staphylococcus aureus; conditions: multiples of the relative potency of imipenem
Experimental: In vitro antibacterial activity determined in accordance with the protocol set forth below is predictive of in vivo activity, when the compounds are administered to a mammal infected with a susceptible bacterial organism.
(§1) Minimum inhibitory concentrations for different compounds may be calculated using the procedures set forth in Lorian, V. (ed.) Antibiotics in Laboratory Medicine (3rd ed.) pages 30-35 if desired. However, by comparing disc sensitivities to a known compound, e.g., imipenem, this calculation is not required to recognize MRSA/MRCNS activity.
Assay Used to Test the Activities of Carbapenems Against Methicillin-Resistant Staphylococci: The assay is an antibiotic disc-diffusion assay modeled after the method described by Bauer and Kirby, et al.1, with the following modifications and clarifications:
Agar: This assay employs an agar depth of 2 mm instead of 4 mm.
Zone Readings: The inner, completely clear zone is measured.
Culture Storage: Frozen vials of strains are stored at -80° C. Working slants are prepared from frozen vials and are used for 1 month to 6 weeks. For methicillin-resistant strains the slant medium is Muleller Hinton Agar; for control strains the slant medium is Brain Heart Infusion Agar. After inoculation from frozen vials, methicillin-resistant slant cultures are incubated at 28° C. until good growth is achieved (approximately 20 hours); slants of control strains are incubated at 37° C. for 16-18 hours.
Preparation of Methicillin-Resistant Inocula for Assay: For methicillin-resistant strains, inoculate 0.5 ml of BHIB heavily (to achieve approximately 1×10^8-109 cfu/ml) from the slant culture by using a sterile cotton tipped applicator. […]
Methicillin-resistant Staphylococci: With a cotton tipped applicator, swab enough growth off the grown plates into 1 ml BHIB to achieve a visual concentration of approximately 1×10^9 cfu/ml. […] Add measured quantities of PBS to dilutions to achieve % T @ 1% above or below the % T measurement for the control cultures. […]

[2] = system: MRSA strain MB #5180; assay: minimum inhibitory concentration; assay type: cell-based, methicillin resistant Staphylococcus aureus; conditions: Staphylococcus aureus, imipenem (standard)
Experimental: as §1
All compounds below were tested against MRSA strain MB #5180. […]

SMILES	MRSA Activity [1]	MIC [2]
C[C@@H](O)[C@H]1C(=O)N2C(C(=O)O)=C3c4cccc(-c5ccccc5)c4CC[C@@H]3[C@H]12	1.9	–
C[C@@H](O)[C@H]1C(=O)N2C(C(=O)O)=C3c4ccccc4CC[C@@H]3[C@H]12	1.3	–
C[C@@H](O)[C@H]1C(=O)N2C(C(=O)O)=C3c4cc(-c5ccccc5)ccc4CC[C@@H]3[C@H]12	18.0	–
C[C@@H](O)[C@H]1C(=O)N2C(C(=O)O)=C(SCCN=CN)C[C@H]12 [imipenem]	–	46 µg/mL (≈ 154 µM)
